{"source": "paper PMC6327983", "about": "“Discovery of cyanopyridine scaffold as novel indoleamine-2,3-dioxygenase 1 (IDO1) inhibitors through virtual screening and preliminary hit optimisation” (Journal of Enzyme Inhibition and Medicinal Chemistry, 2019)", "key": {"IDO1": {"target": "T1, IDO1 (Homo sapiens, UniProt P14902)", "T1 construct": "made in house", "T1 sequence (P14902 whole entry)": "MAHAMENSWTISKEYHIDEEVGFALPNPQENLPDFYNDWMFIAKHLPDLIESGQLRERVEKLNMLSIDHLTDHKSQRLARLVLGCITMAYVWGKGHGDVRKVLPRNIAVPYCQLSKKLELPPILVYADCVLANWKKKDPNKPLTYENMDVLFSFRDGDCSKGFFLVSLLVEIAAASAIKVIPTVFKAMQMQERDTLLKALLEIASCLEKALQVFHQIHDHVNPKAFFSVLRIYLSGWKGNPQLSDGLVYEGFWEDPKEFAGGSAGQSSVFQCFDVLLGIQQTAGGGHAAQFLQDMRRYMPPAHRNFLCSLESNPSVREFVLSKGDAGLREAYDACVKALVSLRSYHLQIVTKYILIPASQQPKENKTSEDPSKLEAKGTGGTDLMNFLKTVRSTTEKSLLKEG", "assay": "Enzyme-based IDO1 activity assay", "assay_type": "biochemical", "conditions": "for IC50 / Enzymatic assay IC50 (hIDO1): purified human IDO1 enzyme; for IC50: read-out: Enzymatic assay IC50 (hIDO1); for Inhibition ratio (%) @10 μM: 10 μM compound, purified recombinant IDO1"}, "HeLa (IDO1)": {"target": "HeLa (IDO1) (Homo sapiens, UniProt P14902)", "sequence (P14902 whole entry)": "as above", "assay": "Cell-based IDO1 activity assay (HeLa kynurenine assay)", "conditions": "IFN-γ stimulated HeLa cells", "procedure": "After incubation for 24 h, 140 µL of supernatant was mixed with 10 µL of 6.1 N trichloroacetic acid and the mixture was incubated for 30 min at 60 °C. The reaction mixture was then centrifuged for 20 min at 4000 rpm at 0 °C to remove sediments. About 100 µL of the supernatant was mixed with 100 µL of 2% (w/v) p-DMAB in acetic acid and measured at 480 nm. The final DMSO concentration was 0.5%. The data were analysed using Graphpad Prism 6.\nThe HeLa-based cellular assay is informative for drug development, as it evaluates not only the IDO1 inhibitory effect of the compounds but also their capacity to permeate the cell, their inhibition of tryptophan and kynurenine transport and their potential cytotoxicity. […] In addition, since the inhibition of tryptophan degradation could simply be an effect of cytotoxicity, thus the determination of cell viability was necessary when reporting cellular IC50 values. In the initial work, all of the screened compounds were determined for their cell viability using the classical MTT assy."}, "HeLa": {"test_system": "HeLa", "conditions": "Figure 1, literature value; cited from earlier work"}, "SKOV3": {"test_system": "SKOV3", "parameters": "method as in earlier work", "conditions": "Figure 1, literature values; 27 (4), 28 (5); cited from earlier work"}, "[1]": {"assay": "Water solubility evaluation (Avdeef–Bucher potentiometric titration)", "assay_type": "physicochemical", "conditions": "thermodynamic from solid", "procedure": "The aqueous solubility was determined on a Gemini Profiler instrument (pION) by the “goldstandard” Avdeef–Bucher potentiometric titration method[46]^,[47]."}}, "data": [{"compound": "N#Cc1cc2c(nc1SCC(=O)Nc1nccs1)CCCCC2", "note": "[LVS-043]", "values": [{"measurement": "IC50", "setting": "IDO1", "value": "21.7 ± 3.18", "unit": "µM"}]}, {"compound": "N#Cc1cccnc1OCC(=O)Nc1ccc(F)cc1", "note": "[LBJ-01, 2-((3-Cyanopyridin-2-yl)oxy)-N-(4-fluorophenyl)acetamide]", "values": [{"measurement": "melting point", "value": "234 to 236", "unit": "°C"}, {"measurement": "IC50", "setting": "IDO1", "value": "19.5 ± 0.28", "unit": "µM"}]}, {"compound": "N#Cc1ccc(C(F)(F)F)nc1SCC(=O)Nc1ccc(F)cc1", "note": "[LBJ-08, 2-((3-Cyano-6-(trifluoromethyl)pyridin-2-yl)thio)-N-(4-fluorophenyl)acetamide]", "values": [{"measurement": "melting point", "value": "201 to 204", "unit": "°C"}, {"measurement": "IC50", "setting": "IDO1", "value": "1.87 ± 0.83", "unit": "µM"}]}, {"compound": "CC(C)c1ccc(C#N)c(SCC(=O)Nc2ccc(F)cc2)n1", "note": "[LVS-019]", "values": [{"measurement": "EC50", "setting": "HeLa (IDO1); 24 h, read-out: Cellular assay EC50 HeLa (IDO1)", "value": "7.68 ± 0.27", "unit": "µM"}, {"measurement": "Hill slope of the curves (cellular dose response)", "setting": "HeLa (IDO1); Figure 9", "value": 1.11}, {"measurement": "IC50", "setting": "IDO1", "value": "2.64 ± 0.94", "unit": "µM"}]}, {"compound": "N#Cc1cnccc1SCC(=O)Nc1ccc(F)cc1", "note": "[LBJ-05, 2-((3-Cyanopyridin-4-yl)thio)-N-(4-fluorophenyl)acetamide]", "values": [{"measurement": "melting point", "value": "232 to 234", "unit": "°C"}, {"measurement": "IC50", "setting": "IDO1", "value": "18 ± 0.13", "unit": "µM"}]}, {"compound": "Cn1cc(C[C@@H](N)C(=O)O)c2ccccc21", "note": "[Compound 1, 1-methyl-D-tryptophan]", "values": [{"measurement": "IC50", "setting": "HeLa", "value": 1500, "unit": "µM"}]}, {"compound": "Cn1c(=O)c(Sc2ccc(Cl)cc2)c(O)c2ccccc21", "note": "[LVS-023]", "values": [{"measurement": "Inhibition ratio (%) @10 μM", "setting": "IDO1", "value": "10.22 ± 1.11", "unit": "%"}]}, {"compound": "CCOc1ccc(/C=c2\\sc3nnc(-c4ccccc4Cl)n3c2=O)cc1", "note": "[LVS-015]", "values": [{"measurement": "Inhibition ratio (%) @10 μM", "setting": "IDO1", "value": "11.05 ± 0.02", "unit": "%"}]}, {"compound": "O=S(=O)(NC1CCCc2ccccc21)c1ccc(Br)cc1", "note": "(stereo not drawn) [LVS-027]", "values": [{"measurement": "Inhibition ratio (%) @10 μM", "setting": "IDO1", "value": "3.37 ± 0.04", "unit": "%"}]}, {"compound": "O=S(=O)(c1cccc2cccc(Cl)c12)N1CCCC1", "note": "[LVS-013]", "values": [{"measurement": "Inhibition ratio (%) @10 μM", "setting": "IDO1", "value": "14.15 ± 0.38", "unit": "%"}]}, {"compound": "4-amino-1,2,5-oxadiazole-3-carboximidamide [Compound 6]", "values": [{"measurement": "IC50", "setting": "HeLa", "value": 1, "unit": "µM"}]}, {"compound": "N#Cc1cc2c(nc1SCC(=O)Nc1ccc(F)cc1)CCCC2", "note": "[LVS-044]", "values": [{"measurement": "IC50", "setting": "IDO1", "value": "49.3 ± 10", "unit": "µM"}]}, {"compound": "CN1CCc2nc(SCC(=O)Nc3sc4c(c3C#N)CCCC4)c(C#N)cc2C1", "note": "[LVS-050]", "values": [{"measurement": "Enzymatic assay IC50 (hIDO1)", "setting": "IDO1", "value": "Not Converged"}]}, {"compound": "C[C@@H](C(=O)Nc1ccc(Cl)cc1)C1CCC(c2ccnc3ccc(F)cc23)CC1", "note": "(stereo partly drawn) [Compound 5]", "values": [{"measurement": "IC50", "setting": "SKOV3", "value": 0.0034, "unit": "µM"}]}, {"compound": "COc1ccc(-c2ccc(C#N)c(SCC(=O)Nc3ccccc3Br)n2)cc1", "note": "[LVS-040]", "values": [{"measurement": "IC50", "setting": "IDO1", "value": "74.7 ± 15.2", "unit": "µM"}]}, {"compound": "COc1cccc(-c2ccc(C#N)c(SCC(=O)Nc3ccccc3Cl)n2)c1", "note": "[LVS-042]", "values": [{"measurement": "IC50", "setting": "IDO1", "value": "38.5 ± 6.09", "unit": "µM"}]}, {"compound": "Cc1nc(SCC(=O)Nc2sc3c(c2C#N)CCC3)c(C#N)c(C)c1C", "note": "[LVS-046]", "values": [{"measurement": "Enzymatic assay IC50 (hIDO1)", "setting": "IDO1", "value": "Not Converged"}]}, {"compound": "N#Cc1ccc(C(F)(F)F)nc1SCC(=O)Nc1ccccc1F", "note": "[LBJ-09, 2-((3-Cyano-6-(trifluoromethyl)pyridin-2-yl)thio)-N-(2-fluorophenyl)acetamide]", "values": [{"measurement": "melting point", "value": "208 to 211", "unit": "°C"}, {"measurement": "IC50", "setting": "IDO1", "value": "5.81 ± 1.2", "unit": "µM"}]}, {"compound": "CN1CCc2nc(SCC(=O)Nc3ccccc3)c(C#N)cc2C1", "note": "[LVS-054]", "values": [{"measurement": "Enzymatic assay IC50 (hIDO1)", "setting": "IDO1", "value": "Not Converged"}]}, {"compound": "COCc1cc(C)nc(SCC(=O)Nc2ccc(C)c(C)c2)c1C#N", "note": "[LVS-035]", "values": [{"measurement": "IC50", "setting": "IDO1", "value": "27.6 ± 6.82", "unit": "µM"}]}, {"compound": "Cc1ccc(NC(=O)CSc2nc(C(F)(F)F)ccc2C#N)cc1", "note": "[LBJ-12, 2-((3-Cyano-6-(trifluoromethyl)pyridin-2-yl)thio)-N-(p-tolyl)acetamide]", "values": [{"measurement": "melting point", "value": "212 to 214", "unit": "°C"}, {"measurement": "IC50", "setting": "IDO1", "value": "17.9 ± 1.28", "unit": "µM"}]}, {"compound": "N#Cc1cccnc1SCC(=O)Nc1ccc(F)cc1", "note": "[LBJ-03, 2-((3-Cyanopyridin-2-yl)thio)-N-(4-fluorophenyl)acetamide]", "values": [{"measurement": "solubility", "setting": "[1]", "value": 75, "unit": "µg/mL"}, {"measurement": "melting point", "value": "198 to 201", "unit": "°C"}, {"measurement": "IC50", "setting": "IDO1", "value": "9.14 ± 0.38", "unit": "µM"}]}, {"compound": "O=C1CC(c2c[nH]c3ccc(F)cc23)C(=O)N1", "note": "(stereo not drawn) [Compound 4]", "values": [{"measurement": "IC50", "setting": "SKOV3", "value": 0.07, "unit": "µM"}]}, {"compound": "Cc1cc(C)c(C#N)c(SCC(=O)Nc2cccc(C)c2C)n1", "note": "[LVS-038]", "values": [{"measurement": "Enzymatic assay IC50 (hIDO1)", "setting": "IDO1", "value": "Not Converged"}]}, {"compound": "Cc1ccc(C#N)c(SCC(=O)Nc2ccc(F)cc2)n1", "note": "[LBJ-07, 2-((3-Cyano-6-methylpyridin-2-yl)thio)-N-(4-fluorophenyl)acetamide]", "values": [{"measurement": "melting point", "value": "238 to 240", "unit": "°C"}, {"measurement": "IC50", "setting": "IDO1", "value": "20.6 ± 1.12", "unit": "µM"}]}, {"compound": "N#Cc1cc2c(nc1SCC(=O)Nc1cc(Cl)cc(Cl)c1)C1CCN2CC1", "note": "[LVS-053]", "values": [{"measurement": "Enzymatic assay IC50 (hIDO1)", "setting": "IDO1", "value": "Not Converged"}]}, {"compound": "COc1cc2c(cc1OC)CN(C(=O)CSc1nc(C)cc(C)c1C#N)CC2", "note": "[LVS-051]", "values": [{"measurement": "Enzymatic assay IC50 (hIDO1)", "setting": "IDO1", "value": "Not Converged"}]}, {"compound": "COc1cccc(NC(=O)CSc2nc(N)c(C#N)cc2C#N)c1", "note": "[LVS-008]", "values": [{"measurement": "Inhibition ratio (%) @10 μM", "setting": "IDO1", "value": "4.31 ± 0.04", "unit": "%"}]}, {"compound": "Cc1cc(C(F)(F)F)c(C#N)c(SCC(=O)Nc2ncc(Br)cc2Br)n1", "note": "[LVS-052]", "values": [{"measurement": "IC50", "setting": "IDO1", "value": "1.38 ± 0.57", "unit": "µM"}]}]}
